According to patent publication US4410546A, “Antiallergic compositions” (Hisamitsu Pharmaceutical Co., Inc., priority 1981, dated 1983):
Where two headings read alike, the source gives them in different places.

Assays:
[1] = system: homologous passive cutaneous anaphylaxis; test: Homologous passive cutaneous anaphylaxis (Homolog. PCA) in rats; assay type: in vivo, rat (male Wistar strain); conditions: 200 mg/kg oral, 2 hours prior to antigen; for inhibition at 200 mg/kg: Rattus norvegicus
Text: In accordance with the experimental method of Tada, T et al (J. Immunol., 106, 1002, 1971), a homologous passive cutaneous anaphylaxis (Homolog. PCA) reaction test was made on male Wistar strain rats, each weighing 160-170 g. In this test, DNP-As (Dinitrophenol coupled Ascaris suum extract) was obtained by reacting dinitrophenol (DNP) with protein extracted from Ascaris suum and was used as the antigen. Anti-DNP-As rats serum was prepaed using said antigen and was used as the antibody. […] After the lapse of 48 hours, the test animals were each given 1.0 ml of the antigen solution (2.0 mg as the amount of protein) containing 0.25% Evans blue by intravenous injection thereinto. Thirty (30) minutes later, they were sacrificed by exsanguination and their skins were peeled to measure the area of PCA blueing lesion. The amounts of dye extravasated were each measured in accordance with the method proposed by Harada, M. et al (J. Pharm. Pharmacol., 23, 218, 1971).
The compounds of the formula (I) were orally administered at a dose of 200 mg/kg to the rats two hours prior to the administration of the antigen thereto.

[2] = system: reversed cutaneous anaphylaxis; test: Reversed cutaneous anaphylaxis test on rats; assay type: in vivo, rat (male Wistar strain); conditions: 100 mg/kg oral, one hour prior to anti-rat rabbit serum; for inhibition at 100 mg/kg: 1 h, read-out: Inhibition rate
Protocol: In accordance with Yamazaki et al's method (Folia Pharmacol. Jap. 60, .sctn.65, 1964) obtained by improving Ungar et al's method (Arch. intern. Pharmacodyn. 123, 71, 1959), male Wistar strain rats, each weighing about 100 g, were tested as follows.
First of all, anti-rat rabbit serum was dissolved in such an amount in an 0.5% solution of Evans blue as to obtain a 15% solution of the serum. The thus obtained serum solution was injected intradermally in an 0.05 ml dose into each of 2 sites on one side of the back of each of the rats, while an 0.5% solution of Evans blue in saline solution was also injected similarly in an 0.05 ml dose into each of 2 sites on one side of the back thereof. Two hours later, the test animals were sacrificed and their skins were peeled. The skins so peeled were punched as the indication of the Evans blue spot to separate the edema (swollen) portions thereof which were then measured for their weights.
The strength of intumescence was calculated from the following formula: [formula] wherein Wi is the weight of the inflammatory portion and Ws is the weight of the control portion.
The antiallergic compounds of the formula (I) according to this invention were orally administered at a dose of 100 mg/kg to the rats one hour prior to the injection of the anti-rat rabbit serum.

[3] = system: lung fragment of guinea pigs; test: Histamine release on lung fragment of guinea pigs; assay type: cell-based, guinea pig; conditions: sodium salt, induced by ovalbumin 10^-6 g/ml
Protocol: The lungs of guinea pigs sensitized actively by ovalbumin were thoroughly irrigated by Tyrode's solution and then cut to obtain about 1-2 mm thick pieces. Two hundred (200) mg of the thus obtained fragments were accurately weighed out, immersed in Tyrode's solution and preincubated at 37° C. for 5 minutes. Then, the compounds of the formula (I) were each suspended in saline solution containing 0.5% of tragacanth gum, incubated at 37° C. for 20 minutes and induced by 10^-6 g/ml of ovalbumin.
Following 20 minutes' incubation, the siolutin was chilled in ice and then measured for the amount of released histamine in the medium and remaining in the tissue by the use of fluorometric assay in accordance with the Shore et al's method (J. Pharmacol. exp. Ther. 127, 182, 1959).

mesenteric mast cells = test: Test for the degranulation of mesenteric mast cells in rats; assay type: cell-based, rat; conditions: 10^-4 g/ml; induced by 5×10^-6 g/ml DNP-As
Protocol: Rats were passively sensitized at their abdominal cavity by anti-DNP-As rat serum, 24 hours after which the mesenterium of the rats was enucleated. Then, 100 mg of the mesenterium were accurately weighed out, immersed in Tyrode's solution and preincubated at 37° C. for 5 minutes. Thereafter, the immersed solution was added to the antiallergic compounds of the formula (I) suspended in saline solution containing 0.5% of tragacanth gum, incubated at 37° C. for 20 minutes and then induced by 5×10^-6 g/ml of DNP-As. After 20 minutes' incubation, the solution was chilled in ice, and the mesenterium so reacted was dyed by the use of formalin (10% formaldehyde content) and an 0.1% tolwdine blue solution containing 0.1% of acetic acid, treated with ethanol and xylene and measured for degranulation by mirror inspection ([…]).

Acute toxicity test = conditions: mouse, in vivo; oral, mice, death in 3 weeks
Protocol: The compounds (of the formula (I)) to be tested were each suspended in a saline solution containing 0.5% of tragacanth gum and then orally administered to 6 ddY strain mice in a group, each mouse weighing 20-25 g. LD50 values were calculated from the death of mice in 3 weeks following the administration.

[4] = amount of dye, read-out: Inhibition rate (amount of dye extravasated)
[5] = area, read-out: Inhibition rate (area of dye extravasated)

Row | SMILES | Amount of dye extravasated [1] [μg/site] | Area of dye extravasated [1] [mm^2] | inhibition at 200 mg/kg [1, 4] [%] | inhibition at 200 mg/kg [1, 5] [%] | Intumescence rate [2] [%] | inhibition at 100 mg/kg [2] [%] | Inhibition rate (histamine release) ([3]; Conc.: 10^-4 g/ml) [%] | Inhibition rate (histamine release) ([3]; Conc.: 10^-5 g/ml) [%] | Degranulation rate (mesenteric mast cells) [%] | LD50 at 504 h (Acute toxicity test) [mg/kg]
1 | CCCC[C@H]1CC[C@H](C(=O)O)CC1 [Compound 1, trans-4-n-butylcyclohexanecarboxylic acid] | 5.17 ± 0.32 | 76.87 ± 2.68 | 64 | 22.4 | 29.81 ± 7.17 | 30 | 83.9 | 9.2 | 71.45 ± 5.85 | > 2000
2 | CCCCC[C@H]1CC[C@H](C(=O)O)CC1 [Compound 2, trans-4-n-pentylcyclohexanecarboxylic acid] | 2.49 ± 0.29 | 67.20 ± 2.57 | 82.7 | 32.2 | 25.00 ± 2.77 | 41.3 | 92.2 | 83.4 | 74.96 ± 2.91 | > 2000
